Test results as given in patent publication US20240180149A1, “FIRE ANT BAITS WITH ENHANCED SELECTIVITY” (The United States of America, as represented by the …, priority 2022, published 2024).
Entries after “also recorded” stand apart in the source; their conditions may differ.

Key:
little black ants = test: Two-choice field feeding bioassay on little black ants (soybean oil); assay type: in vivo, Monomorium minimum
From the text: (§1) Ant feeding bioassays—Multiple-choice and a paired two-choice bioassays were used in this study. An exemplary schematic of the multichoice bioassay field feeding setup is shown in FIG. 1A, and an exemplary schematic of the two-choice bioassay field feeding setup is shown in FIG. 1B. Soybean oil was used as a food source for all the bioassays (Great Value, purchased from Walmart in Greenville Mississippi, USA). The feeding apparatus was a filtered 1-ml pipette tip with the part 0.5 cm below the filter removed. In multiple-choice bioassays, five concentrations of the test compounds were tested with untreated soybean oil as a control, and in two-choice bioassays, the compound at certain concentration was tested against the control oil. Eighty microliter soybean oil was loaded onto each filter. After being weighed, the apparatuses with oil were placed in the field for about 2 hours. The apparatuses were then collected and frozen under −40° C. to kill all ants. The apparatuses were weighed again after all ants were removed from the apparatuses. The difference in the weight of apparatuses before and after the feeding bioassays was the oil consumption. Feeding sites were at least 10 m away from each other for fire ants, and 3 m away for little black ants and for thief ants. The difference in oil consumption among/between treatment and control apparatuses was used to evaluate the effect of tested compound on the feeding of fire ants. For multiple-choice bioassays, a one-way ANOVA was performed to compare the effect of different concentrations of tested compound on the percentage of oil consumption. Tukey's HSD test was used for multiple comparisons. A paired t test was used in statistical analysis for the two-choice bioassays.
(§2) Two choice bioassays—Two-choice bioassays were conducted at six concentrations of trans-solenopsis A in soybean oil, including 6.6, 3.3, 1.7, 0.8, 0.4, and 0.2 mg/g for fire ants and little black ants, and four concentrations for thief ants including 6.6, 3.3, 1.7, and 0.8 mg/g. Feeding sites were selected using blank bait (untreated soybean oil in the feeding apparatuses). Blank baits were placed at the flagged sites for 30 minutes before the bioassay, and active feeding sites then used for the bioassays. Bioassays on fire ants were conducted in open area where most baits were hit by fire ants. Bioassays on little black ants and thief ants were conducted under the bushes, since baits under the bushes had more chances to be hit by little black ants or thief ants.

thief ants = test: Two-choice field feeding bioassay on thief ants (soybean oil); assay type: in vivo, Solenopsis molesta
From the text: as §1, §2

fire ants [1] = test: Multiple-choice field feeding bioassay on fire ants (soybean oil); assay type: in vivo, Solenopsis invicta; settings: ten concentrations 0.015-6.6 mg/g in soybean oil, two sets (P=0.076; P=0.703), one-way ANOVA
From the text: as §1, with “The difference in oil consumption among/between treatment and control apparatuses was used to evaluate the effect of tested compound on the feeding of fire ants. For multiple-choice bioassays, a one-way ANOVA was performed to compare the effect of different concentrations of tested compound on the percentage of oil consumption. Tukey's HSD test was used for multiple comparisons. A paired t test was used in statistical analysis for the two-choice bioassays.” left out

fire ants [2] = test: Two-choice field feeding bioassay on fire ants (soybean oil); assay type: in vivo, Solenopsis invicta; settings: two-choice vs control oil
From the text: as §1
Two choice bioassays—Two-choice bioassays were conducted at six concentrations of trans-solenopsis A in soybean oil, including 6.6, 3.3, 1.7, 0.8, 0.4, and 0.2 mg/g for fire ants and little black ants, and four concentrations for thief ants including 6.6, 3.3, 1.7, and 0.8 mg/g. […]

[3] = two-choice vs control oil, 1.66 mg/g
[4] = two-choice vs control oil, 1.66 mg/g, listed as Trans-solenopsisn A
[5] = two-choice vs control oil, 3.3 mg/g
[6] = two-choice vs control oil, 3.3 mg/g, listed as Trans-solenopsisn A
[7] = two-choice vs control oil, 6.6 mg/g
[8] = two-choice vs control oil, 6.6 mg/g, listed as Trans-solenopsisn A

CCCCCCCCCCC[C@@H]1CCC[C@@H](C)N1 (relative stereo) [trans-solenopsin A]
inhibition of feeding by little black ants on soybean oil (little black ants; two-choice vs control oil, 0.42 mg/g, P=0.07): very close to be statistically significant | feeding by little black ants on soybean oil (little black ants; two-choice vs control oil, 0.83 mg/g): significantly inhibited the feeding | feeding by little black ants on soybean oil (little black ants; two-choice vs control oil, 0.83 mg/g, listed as Trans-solenopsisn A): significantly inhibited feeding | feeding by little black ants on soybean oil (little black ants; [3]): significantly inhibited the feeding | feeding by little black ants on soybean oil (little black ants; [4]): significantly inhibited feeding | feeding by little black ants on soybean oil (little black ants; [5]): significantly inhibited the feeding | feeding by little black ants on soybean oil (little black ants; [6]): significantly inhibited feeding | feeding by little black ants on soybean oil (little black ants; [7]): almost completely shut down; also recorded: significantly inhibited the feeding | feeding by little black ants on soybean oil (little black ants; [8]): significantly inhibited feeding; also recorded: almost completely inhibited | concentrations that significantly inhibited feeding by little black ants (little black ants; two-choice, paired t test, P<=0.045): > 0.42 mg/g | share of oil consumed by little black ants that was trans-solenopsin A treated (little black ants; two-choice, 3.3 mg/g): 9.63% | inhibition of feeding by thief ants on soybean oil (thief ants; two-choice vs control oil, 0.80 mg/g, P=0.14): not statistically significant | feeding by thief ants on soybean oil (thief ants; [3]): significantly inhibited the feeding | feeding by thief ants on soybean oil (thief ants; [4]): feeding inhibition was significant | feeding by thief ants on soybean oil (thief ants; [5]): significantly inhibited the feeding | feeding by thief ants on soybean oil (thief ants; [6]): feeding inhibition was significant | feeding by thief ants on soybean oil (thief ants; [7]): almost completely stopped; also recorded: completely shut down; also recorded: significantly inhibited the feeding | feeding by thief ants on soybean oil (thief ants; [8]): feeding inhibition was significant; also recorded: almost completely inhibited | share of oil consumed by thief ants that was trans-solenopsin A-treated (thief ants; two-choice, concentration not restated (previous sentence: 3.3 mg/g)): 1.52% | effect on oil consumption by fire ants (fire ants [1]): no significant effect on oil consumption | feeding preference of fire ants for soybean oil (fire ants [2]; 0.27 mg/g (270 ppm), P=0.049): fed preferentially on oil treated with trans-solenopsin A; also recorded: feed preferentially on soybean oil containing trans-solenopsin A | feeding preference of fire ants for soybean oil (fire ants [2]; 0.42 mg/g (420 ppm), P=0.0585): fed preferentially on oil treated with trans-solenopsin A; also recorded: feed preferentially on soybean oil containing trans-solenopsin A | feeding preference of fire ants for soybean oil (fire ants [2]; 6.6 mg/g (6600 ppm), P=0.39): did not significantly affect the feeding preference
